Reference: patent US4107304A, “Oxo-imidazolidine substituted cephalosporins and antibacterial compositions and methods of combatting bacteria employing them” (Bayer Aktiengesellschaft, priority 1974, dated 1978)

Tests used:
[1] = tested on: B. subtilis; experiment: Antibiotic activity of electropherogram spot; format: cell-based; conditions: against B. subtilis
[2] = tested on: Escherichia coli; experiment: Antibiotic activity of electropherogram spot; format: cell-based; conditions: against Escherichia coli
[3] = tested on: Pseudomonas aeruginosa; experiment: Antibiotic activity of electropherogram spot; format: cell-based; conditions: against Pseudomonas aeruginosa
[4] = Antibiotic activity of electropherogram spot (organism not stated); format: cell-based
[5] = tested on: Brucella sp.; format: cell-based; conditions: 100 μg/ml, 24 hours
[6] = tested on: Proteus, indole negative and indole positive sp.; experiment: In vitro turbidity test, 24 h in Muller-Hinton broth; format: cell-based; conditions: 100 μg/ml
[7] = tested on: Shigella sp.; experiment: as above; format: cell-based; conditions: 100 μg/ml
[8] = tested on: Klebsiella pneumoniae; experiment: as above; format: cell-based; conditions: 100 μg/ml, 1 × 10^5 to 2 × 10^5 bacteria per milliliter, freedom from turbidity = active
[9] = tested on: Haemophilis influenzae; experiment: as above; format: cell-based; conditions: 100 μg/ml
[10] = tested on: Streptococcus pyogenes W.; experiment: as above; format: cell-based; conditions: 100 μg/ml
[11] = tested on: pasteurella pseudotuberculosis; format: cell-based; conditions: 100 μg/ml, 24 hours
[12] = tested on: Salmonella sp.; experiment: In vitro turbidity test, 24 h in Muller-Hinton broth; format: cell-based; conditions: 100 μg/ml
[13] = tested on: Serratia marcescens; experiment: as above; format: cell-based; conditions: 100 μg/ml
[14] = tested on: Bordetella bronchiseptica; experiment: as above; format: cell-based; conditions: 100 μg/ml
[15] = tested on: Providencia; experiment: as above; format: cell-based; conditions: 100 μg/ml
[16] = tested on: Neisseria catarrhalis sp.; experiment: as above; format: cell-based; conditions: 100 μg/ml
[17] = tested on: Enterococcus sp.; experiment: as above; format: cell-based; conditions: 100 μg/ml
[18] = tested on: Lactobacillus sp.; experiment: as above; format: cell-based; conditions: 100 μg/ml
[19] = tested on: Escherichia coli BE; experiment: as above; format: cell-based; conditions: 100 μg/ml
[20] = tested on: Enterobacter aerogenes sp.; experiment: as above; format: cell-based; conditions: 100 μg/ml
[21] = tested on: Staphylococcus aureus 133; experiment: as above; format: cell-based; conditions: 100 μg/ml
[22] = tested on: Corynebacterium pyogenes M.; experiment: as above; format: cell-based; conditions: 100 μg/ml
[23] = tested on: Diplococcus pneumoniae sp.; experiment: as above; format: cell-based; conditions: 100 μg/ml
[24] = tested on: Corynebacterium diphtheria gravis; experiment: as above; format: cell-based; conditions: 100 μg/ml
[25] = tested on: Escherichia coli C 165; experiment: Animal experiments with white mice, intraperitoneal infection, survival after 24 hours; format: in vivo, white mice of strain CF1; conditions: C165, sc, subcutaneous, 1 administration 30 minutes after infection, dose at which 50% of infected animals survive, read-out: ED 50 after 24 hours
Protocol: (§1) The white mice of strain CF1 were infected intraperitoneally with the species of bacteria indicated. |Animal Experiments With White Mice |Determination of the ED 50 after 24 hours | Dose in mg of the cephalosporin from | Example 6 per kg of body weight |Germ (administered subcutaneously) |Therapy: 1 administration 30 minutes after infection. | The ED 50 is the dose at which 50% of the infected |animals still survive after 24 hours.

[26] = tested on: Staphylococcus aureus 133; experiment: as above; format: in vivo, white mice of strain CF1; conditions: Staphylococcus aureus, 133, sc, subcutaneous, 1 administration 30 minutes after infection, dose at which 50% of infected animals survive, read-out: ED 50 after 24 hours
Protocol: as §1

## CC(=O)OCC1=C(C(=O)O)N2C(=O)[C@@H](NC(=O)[C@H](NC(=O)N3CCNC3=O)c3ccccc3)[C@H]2SC1 [Example 1, sodium 7-{D-α-[(2-oxo-imidazolidin-1-yl)carbonylamino]-phenylacetamido}-3-acetoxymethyl-ceph-3-em-4-carboxylate]
[1]
  antibiotic activity of the electropherogram spot: only one spot with antibiotic activity
[2]
  antibiotic activity of the electropherogram spot: only one spot with antibiotic activity
[3]
  antibiotic activity of the electropherogram spot: only one spot with antibiotic activity

## CC1=C(C(=O)O)N2C(=O)[C@@H](NC(=O)[C@H](NC(=O)N3CCNC3=O)c3ccccc3)[C@H]2SC1 [Example 2, 7-{D-α-[(2-Oxo-imidazolidin-1-yl)-carbonylamino]-phenylacetamido}-3-methyl-ceph-3-em-4-carboxylic acid]
[4]
  antibiotic activity of the electropherogram spot: only one spot with antibiotic activity

## CC(=O)OCC1=C(C(=O)O)N2C(=O)[C@@H](NC(=O)[C@H](NC(=O)N3CCN(C)C3=O)c3ccccc3)[C@H]2SC1 [Example 3, sodium 7-{D-α-[(3-methyl-2-oxo-imidazolidin-1-yl)-carbonylamino]-phenylacetamido}-3-acetoxymethyl-ceph-3-em-4-carboxylate]
[5]
  degree of turbidity: free from turbidity
[6]
  degree of turbidity: free from turbidity
[7]
  degree of turbidity: free from turbidity
[8]
  degree of turbidity: free from turbidity
[9]
  degree of turbidity: free from turbidity
[10]
  degree of turbidity: free from turbidity
[11]
  degree of turbidity: free from turbidity
[12]
  degree of turbidity: free from turbidity
[13]
  degree of turbidity: free from turbidity
[14]
  degree of turbidity: free from turbidity
[15]
  degree of turbidity: free from turbidity
[16]
  degree of turbidity: free from turbidity
[17]
  degree of turbidity: free from turbidity
[18]
  degree of turbidity: free from turbidity
[19]
  degree of turbidity: free from turbidity
[20]
  degree of turbidity: free from turbidity
[21]
  degree of turbidity: free from turbidity
[22]
  degree of turbidity: free from turbidity
[23]
  degree of turbidity: free from turbidity
[24]
  degree of turbidity: free from turbidity

## CC(=O)OCC1=C(C(=O)O)N2C(=O)[C@@H](NC(=O)[C@H](NC(=O)N3CCN(S(C)(=O)=O)C3=O)c3ccccc3)[C@H]2SC1 [Example 6, Sodium 7-{D-α-[(2-oxo-3-mesyl-imidazolidin-1-yl)-carbonylamino]-phenylacetamido}-3-acetoxymethyl-ceph-3-em-4-carboxylate]
[5]
  degree of turbidity: free from turbidity
[6]
  degree of turbidity: free from turbidity
[7]
  degree of turbidity: free from turbidity
[8]
  degree of turbidity: free from turbidity
[25]
  ED50: 200 mg/kg
[26]
  ED50: 10 mg/kg
[4]
  antibiotic activity of the electropherogram spot: one spot with antibiotic activity
[9]
  degree of turbidity: free from turbidity
[10]
  degree of turbidity: free from turbidity
[11]
  degree of turbidity: free from turbidity
[12]
  degree of turbidity: free from turbidity
[13]
  degree of turbidity: free from turbidity
[14]
  degree of turbidity: free from turbidity
[15]
  degree of turbidity: free from turbidity
[16]
  degree of turbidity: free from turbidity
[17]
  degree of turbidity: free from turbidity
[18]
  degree of turbidity: free from turbidity
[19]
  degree of turbidity: free from turbidity
[20]
  degree of turbidity: free from turbidity
[21]
  degree of turbidity: free from turbidity
[22]
  degree of turbidity: free from turbidity
[23]
  degree of turbidity: free from turbidity
[24]
  degree of turbidity: free from turbidity

## CC(=O)OCC1=C(C(=O)O)N2C(=O)[C@@H](NC(=O)[C@H](NC(=O)N3CCN(S(=O)(=O)c4ccccc4)C3=O)c3ccccc3)[C@H]2SC1 [Example 7, Sodium 7-{D-α-[(2-oxo-3-phenylsulphonyl-imidazolidin-1-yl)-carbonylamino]-phenylacetamido}-3-acetoxymethyl-ceph-3-em-4-carboxylate]
[5]
  degree of turbidity: free from turbidity
[6]
  degree of turbidity: free from turbidity
[7]
  degree of turbidity: free from turbidity
[8]
  degree of turbidity: free from turbidity
[9]
  degree of turbidity: free from turbidity
[10]
  degree of turbidity: free from turbidity
[11]
  degree of turbidity: free from turbidity
[12]
  degree of turbidity: free from turbidity
[13]
  degree of turbidity: free from turbidity
[14]
  degree of turbidity: free from turbidity
[15]
  degree of turbidity: free from turbidity
[16]
  degree of turbidity: free from turbidity
[17]
  degree of turbidity: free from turbidity
[18]
  degree of turbidity: free from turbidity
[19]
  degree of turbidity: free from turbidity
[20]
  degree of turbidity: free from turbidity
[21]
  degree of turbidity: free from turbidity
[22]
  degree of turbidity: free from turbidity
[23]
  degree of turbidity: free from turbidity
[24]
  degree of turbidity: free from turbidity
